Experimental data reported in US11446354B2, “Method of treatment” (Hexima Limited, priority 2014, dated 2022).
Read-outs that look alike come from different tables or passages of the source.

Key:
[1] = assay type: in vitro ADME, Human; conditions: for Cumulative amount through nail as percent (of applied dose): human
Procedure: Penetration of NaD1 through human nails was measured according to the method of Hui et al. (2002) J Pharm Sci 91(1):189-195. Human toenails were obtained from ScienceCare (USA) and washed with phosphate buffered saline (details, PBS) before being placed on a kimwipe that had been soaked in PBS for 3 h to rehydrate the nail. The nail was then placed in a plastic nail adapter with a dosing area of 0.5×0.5 cm (Permagear, USA) and a cotton bud wetted with 75 microlitres of PBS was placed in the receptor chamber in contact with the underside of the nail.
The cotton bud in contact with the underside of the nail was removed after 24 h and every 24 h following. Protein that had passed through the nail was recovered from the cotton bud by washing twice with 500 μL of 0.1% v/v trifluoroacetic acid. Recovered protein was quantified using RP-HPLC.

[2] = tested on: Trichophyton rubrum, T. interdigitale, Microsporum fulvum and C. albicans; experiment: Inhibition assays summarised across the range of fungal pathogens; assay type: cell-based; conditions: summary of Table 3
Procedure: The inhibitory effects of the plant defensins on the growth of Trichophyton rubrum, T. interdigitale, Microsporum fulvum and C. albicans (obtained from the National Mycology Reference Centre, South Australia Pathology at the Women's and Children's Hospital, Adelaide, Australia) are measured essentially as described by Broekaert et al. (1990) FEMS Microbiol Lett 69:55-59. Spores of T. rubrum, T. interdigitale and M. fulvum are isolated from sporulating fungus growing on 1⁄2 strength Sabouraud dextrose agar (SDA). Spores were removed from the plates by the addition of 1⁄2 strength potato dextrose broth (PDB). C. albicans cells are grown in Yeast Peptone Broth (YPD) for 16 h. Spore and cell concentrations are measured using a hemocytometer. Antifungal assays are conducted in 96 well microtitre plates essentially as herein described. Wells are loaded with 20 μL of filter sterilized (0.22 μm syringe filter, Millipore) defensin (10× stock for each final concentration) or water and 80 μL of 5×10^4 spores/mL (T. rubrum, T, interdigitale, M. fulvum) or 5,000 cells/mL (C. albicans) in 1⁄2 strength PDB. The plates are incubated at 30° C. Fungal growth is assayed by measuring optical density at 595 nm ([…]) using a microtitre plate reader (SpectraMax Pro M2; Molecular Devices. Growth is allowed to proceed until the optical density (OD) of the fungus in the absence of any test defensin reached an OD of 0.2. Each test is performed in duplicate.

[3] = tested on: Human monocytic lymphoma (U937) cells; assay type: cell-based
Procedure: Human monocytic lymphoma (U937) cells are cultured in RPMI-1640 medium. All culture media are supplemented with 5-10% v/v fetal calf serum, 100 U/ml of penicillin, and 100 μg/ml of streptomycin. Cell lines are cultured at 37° C. in a humidified atmosphere containing 5% v/v CO2. Adherent cell lines are detached from the flask by adding a mixture containing 0.25% v/v trypsin and […]. A flow cytometry-based propidium iodide (PI) uptake assay is performed to analyze the ability of plant defensins to permeabilize U937 cells (essentially as described in Poon et al, 2014). Briefly, cells are suspended to 1×10^6 cells/ml in 0.1% v/v BSA/RPMI-1640 and incubated with plant defensins (10 μM) at 37° C. for 30 min. Samples are added to PBS containing a final concentration of 1 μg/ml PI and placed on ice. Samples are then analyzed immediately using the BD FACSCanto II Flow Cytometer and BD FACSDiva software v6.1.1. The resultant flow cytometry data is analyzed using FlowJo software v8.8.6. Cells are gated appropriately based on forward scatter and side scatter and cell permeabilization is defined by PI-positive staining.

For `Cc1cc(C2CCCCC2)n(O)c(=O)c1` [Ciclopirox], the “Cumulative amount through nail as percent (of applied dose)” value ([1]; 3 day, 10 %) was 0.03%, the “Cumulative amount through nail as percent (of applied dose)” value ([1]; 6 day, 10 %) was 0.03% and the “Cumulative amount through nail as percent (of applied dose)” value ([1]; 9 day, 10 %) was 0.04%. For the same molecule, the “Cumulative amount through nail as percent (of applied dose)” value ([1]; 12 day, 10 % solution) was 0.05% and the “Cumulative amount through nail as percent (of applied dose)” value ([1]; 15 day, 10 % solution) was 0.06%.
With `C=C1CCN([C@H](C)[C@](O)(Cn2cncn2)c2ccc(F)cc2F)CC1` [Efinaconazole] the “Cumulative amount through nail as percent (of applied dose)” value ([1]; 1 day, 10 % solution) was 0.2%, the “Cumulative amount through nail as percent (of applied dose)” value ([1]; 2 day, 10 % solution) was 0.4% and the “Cumulative amount through nail as percent (of applied dose)” value ([1]; 3 day, 10 %) was 0.7%. For the same molecule, the “Cumulative amount through nail as percent (of applied dose)” value ([1]; 4 day, 10 % solution) was 0.8%, the “Cumulative amount through nail as percent (of applied dose)” value ([1]; 6 day, 10 %) was 1.3% and the “Cumulative amount through nail as percent (of applied dose)” value ([1]; 9 day, 10 %) was 2.0%. The “Cumulative amount through nail as percent (of applied dose)” value ([1]; 12 day, 10 % solution) was 2.7% and the “Cumulative amount through nail as percent (of applied dose)” value ([1]; 15 day, 10 % solution) was 3.3%.
In the case of `OB1OCc2cc(F)ccc21` [Tavaborole], the “Cumulative amount through nail as percent (of applied dose)” value ([1]; 3 day, 10 %) is reported as 2.0%, the “Cumulative amount through nail as percent (of applied dose)” value ([1]; 6 day, 10 %) is reported as 3.7% and the “Cumulative amount through nail as percent (of applied dose)” value ([1]; 9 day, 10 %) is reported as 6.8%. For the same molecule, the “Cumulative amount through nail as percent (of applied dose)” value ([1]; 12 day, 10 % solution) was 10.7% and the “Cumulative amount through nail as percent (of applied dose)” value ([1]; 15 day, 10 % solution) was 14.9%.
For “HXL001: Class I plant defensin from Zea mays, SEQ ID NO: 4 (RHCLSQSHRFKGLCMSSNNCANVCQTENFPGGECKAEGATRKCFCKKIC; HXL001 Zea mays)”, the “Antifungal activity across the range of fungal pathogens, result in words” value (shortened to “Antifungal activity across the range”) [2] was “did not display any activity at the concentrations tested” and the “U937 cells permeabilized (PI-positive)” value [3] was “less than 2%”.
In the case of “HXL005: Class I plant defensin from Taraxcum kok-saghyz, SEQ ID NO: 8 (KMCQTTSHAFSCVNDSGCSGSCEKQGFASGKCDGVRRRCTCYKKC; HXL005 Taraxcum kok-saghyz)”, the “Antifungal activity across the range” value [2] is reported as “most effective plant defensins across the range of fungal pathogens” and the “U937 cells permeabilized (PI-positive)” value [3] is reported as about 25%.
With “HXL009: Class I plant defensin from Zea mays, SEQ ID NO: 9 (TVCMRHNNFYHGPCMSNKDCANSCVQHNLGVGGYCRGKIPFNKECMCTFEC; HXL009 Zea mays)” the “Antifungal activity across the range” value [2] was “did not display any activity at the concentrations tested” and the “U937 cells permeabilized (PI-positive)” value [3] was “less than 2%”.
With “HXL012: Class I plant defensin from Amaranthus retroflexus, SEQ ID NO: 10 (RMCKAPSKLFRGMCGIRDSNCDSVCRAEGMAAGDCHGLRRRCICSRPC; HXL012 Amaranthus retroflexus)” the “Antifungal activity across the range” value [2] was “intermediate activity across the range of pathogens”, the “U937 cells permeabilized (PI-positive)” value [3] was “less than 2%” and the “Nail penetration, result in words” value [1] was “did not penetrate the nail”.
In the case of “HXL013: Class I plant defensin from Glycine max, SEQ ID NO: 11 (KDCLTRRHGFQGRCLFDRQCAHVCRSDGFIGGQCRGPLRKCFCSRPC; HXL013 Glycine max)”, the “Antifungal activity across the range” value [2] is reported as “intermediate activity across the range of pathogens” and the “U937 cells permeabilized (PI-positive)” value [3] is reported as 5%.
In the case of “HXL015: Class I plant defensin from Oryza sativa, SEQ ID NO: 12 (RHCLSQSHRFKGMCVSSNNCANVCRTESFPDGECKSHGLERKCFCKKVC; HXL015 Oryza sativa)”, the “Antifungal activity across the range” value [2] is reported as “intermediate activity across the range of pathogens”.
In the case of “HXL035: Class I plant defensin from Picramnia pentandra, SEQ ID NO: 2 (KVCTKPSKFFKGLCGFDRDCTVACKKEGLASGFCQNKGFFNVVCVCRKPC; HXL035 Picramnia pentandra)”, the “Antifungal activity across the range” value [2] is reported as “most effective plant defensins across the range of fungal pathogens”.
For “HXP4: Artificial defensin variant, Loop1B of a Class I defensin replaces that of the Solanaceous Class II defensin, SEQ ID NO: 21 (RECKTESHRFKGPCITKPPCRKACISEKFTDGHCSKILRRCLCTKPC; HXP4)”, the “U937 cells permeabilized (PI-positive)” value [3] was 13%.
